pIC50: −log10 of the molar value.
What was measured:
[1] = target: T1, beta-catenin/TCF4 engagement (Homo sapiens, UniProt P35222); assay: Nano-BRET target engagement assay (B-cat-Halo & TCF4-Luc in HEK293 cells); assay type: cell-based; conditions: absolute IC50; read-out: NanoBRET Abs IC50
T1 construct: expressed in transfected cells; host or cells: HEK293
T1 sequence (P35222 1-781): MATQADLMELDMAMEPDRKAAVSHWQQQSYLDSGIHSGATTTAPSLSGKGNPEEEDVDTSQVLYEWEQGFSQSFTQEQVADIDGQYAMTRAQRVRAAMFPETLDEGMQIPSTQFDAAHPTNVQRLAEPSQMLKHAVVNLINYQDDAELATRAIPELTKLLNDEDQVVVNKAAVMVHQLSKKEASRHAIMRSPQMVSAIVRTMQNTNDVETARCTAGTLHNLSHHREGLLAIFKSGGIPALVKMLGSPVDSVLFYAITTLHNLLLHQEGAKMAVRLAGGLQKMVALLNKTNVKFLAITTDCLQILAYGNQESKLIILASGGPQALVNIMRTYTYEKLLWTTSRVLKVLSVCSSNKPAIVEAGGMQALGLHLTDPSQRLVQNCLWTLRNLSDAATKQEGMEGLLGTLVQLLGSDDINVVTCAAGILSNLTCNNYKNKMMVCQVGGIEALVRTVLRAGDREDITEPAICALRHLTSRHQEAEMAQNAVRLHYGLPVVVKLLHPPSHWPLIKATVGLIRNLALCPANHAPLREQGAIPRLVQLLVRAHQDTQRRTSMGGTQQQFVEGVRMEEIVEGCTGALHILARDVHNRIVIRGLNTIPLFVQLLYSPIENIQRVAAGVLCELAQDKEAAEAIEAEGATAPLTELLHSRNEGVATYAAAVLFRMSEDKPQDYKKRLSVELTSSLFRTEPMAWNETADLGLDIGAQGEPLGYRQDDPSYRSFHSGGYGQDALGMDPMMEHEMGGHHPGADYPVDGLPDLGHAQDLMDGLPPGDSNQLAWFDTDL

[2] = target: T2, full-length beta-Catenin (Uniprot ID P35222) (Homo sapiens, UniProt P35222); assay: Fluorescence polarization IC50 (beta-catenin / 5FAM-TCF4 10-53 competition); assay type: binding; conditions: fluorescence polarization; read-out: beta-Catenin FP IC50
T2 construct: 10 nM full-length beta-Catenin (Uniprot ID P35222)
T2 sequence (P35222 1-781): T1 sequence (P35222 1-781)

| Structure (SMILES) | pIC50 [1] | pIC50 [2] |
| --- | --- | --- |
| CC(=O)N1CCC[C@]12CC=CCCCC1(CCCC=CCCCOC(=O)N3CC[C@@](C(=O)N[C@@H](Cc4ccsc4)C(=O)N[C@@H](Cc4csc5ccccc45)C(=O)N[C@@H](CO)C(N)=O)(C3)NC(=O)[C@H](CC(C)C)NC(=O)[C@H](Cc3ccccc3)NC(=O)[C@H](C)NC(=O)[C@H](C)NC(=O)[C@H](CC(=O)O)NC(=O)[C@H](CC(=O)O)NC1=O)NC(=O)[C@H](CC(C)(C)C)NC(=O)[C@H](CC(=O)O)NC2=O (stereo partly drawn) [I-1493, Ac-PL3-Asp-Npg-B5-Asp-Asp-Ala-Ala-Phe-Leu-PyrS2-3Thi-BztA-Ser-NH2] | 5.31 | 8.00 |
| CC(=O)N1CCC[C@]12CC=CCCCC1(CCCC=CCCCOC(=O)N3CC[C@@](C(=O)N[C@@H](Cc4ccsc4)C(=O)N[C@@H](Cc4csc5ccccc45)C(=O)N[C@H](C(N)=O)[C@@H](C)O)(C3)NC(=O)[C@H](CC(C)C)NC(=O)[C@H](Cc3ccccc3)NC(=O)[C@H](C)NC(=O)[C@H](C)NC(=O)[C@H](CC(=O)O)NC(=O)[C@H](CC(=O)O)NC1=O)NC(=O)[C@H](CC(C)(C)C)NC(=O)[C@H](CC(=O)O)NC2=O (stereo partly drawn) [I-1494, Ac-PL3-Asp-Npg-B5-Asp-Asp-Ala-Ala-Phe-Leu-PyrS2-3Thi-BztA-Thr-NH2] | 4.83 | 8.30 |
| CC(=O)N1CCC[C@]12CC=CCCCC1(CCCC=CCCCOC(=O)N3CC[C@@](C(=O)N[C@@H](Cc4ccsc4)C(=O)N[C@@H](Cc4csc5ccccc45)C(=O)N[C@H](C(N)=O)C(C)C)(C3)NC(=O)[C@H](CC(C)C)NC(=O)[C@H](Cc3ccccc3)NC(=O)[C@H](C)NC(=O)[C@H](C)NC(=O)[C@H](CC(=O)O)NC(=O)[C@H](CC(=O)O)NC1=O)NC(=O)[C@H](CC(C)(C)C)NC(=O)[C@H](CC(=O)O)NC2=O (stereo partly drawn) [I-1495, Ac-PL3-Asp-Npg-B5-Asp-Asp-Ala-Ala-Phe-Leu-PyrS2-3Thi-BztA-Val-NH2] | 4.62 | 7.62 |
| CC(=O)N1CCC[C@]12CC=CCCCC1(CCCC=CCCCOC(=O)N3CC[C@@](C(=O)N[C@@H](Cc4ccsc4)C(=O)N[C@@H](Cc4csc5ccccc45)C(=O)N[C@@H](Cc4ccccc4)C(N)=O)(C3)NC(=O)[C@H](CC(C)C)NC(=O)[C@H](Cc3ccccc3)NC(=O)[C@H](C)NC(=O)[C@H](C)NC(=O)[C@H](CC(=O)O)NC(=O)[C@H](CC(=O)O)NC1=O)NC(=O)[C@H](CC(C)(C)C)NC(=O)[C@H](CC(=O)O)NC2=O (stereo partly drawn) [I-1496, Ac-PL3-Asp-Npg-B5-Asp-Asp-Ala-Ala-Phe-Leu-PyrS2-3Thi-BztA-Phe-NH2] | 5.03 | 7.29 |
| CC(=O)N1CCC[C@]12CC=CCCCC1(CCCC=CCCCOC(=O)N3CC[C@@](C(=O)N[C@@H](Cc4ccsc4)C(=O)N[C@@H](Cc4csc5ccccc45)C(=O)N[C@@H](Cc4c[nH]c5ccccc45)C(N)=O)(C3)NC(=O)[C@H](CC(C)C)NC(=O)[C@H](Cc3ccccc3)NC(=O)[C@H](C)NC(=O)[C@H](C)NC(=O)[C@H](CC(=O)O)NC(=O)[C@H](CC(=O)O)NC1=O)NC(=O)[C@H](CC(C)(C)C)NC(=O)[C@H](CC(=O)O)NC2=O (stereo partly drawn) [I-1497, Ac-PL3-Asp-Npg-B5-Asp-Asp-Ala-Ala-Phe-Leu-PyrS2-3Thi-BztA-Trp-NH2] | 4.94 | 7.30 |
| CC(=O)N1CCC[C@]12CC=CCCCC1(CCCC=CCCCOC(=O)N3CC[C@@](C(=O)N[C@@H](Cc4ccsc4)C(=O)N[C@@H](Cc4csc5ccccc45)C(=O)N[C@@H](CCO)C(N)=O)(C3)NC(=O)[C@H](CC(C)C)NC(=O)[C@H](Cc3ccccc3)NC(=O)[C@H](C)NC(=O)[C@H](C)NC(=O)[C@H](CC(=O)O)NC(=O)[C@H](CC(=O)O)NC1=O)NC(=O)[C@H](CC(C)(C)C)NC(=O)[C@H](CC(=O)O)NC2=O (stereo partly drawn) [I-1499, Ac-PL3-Asp-Npg-B5-Asp-Asp-Ala-Ala-Phe-Leu-PyrS2-3Thi-BztA-Hse-NH2] | 5.19 | 7.64 |
| CC(=O)N1CCC[C@]12CC=CCCCC1(CCCC=CCCCOC(=O)N3CC[C@@](C(=O)N[C@@H](Cc4ccsc4)C(=O)N[C@@H](Cc4csc5ccccc45)C(=O)N[C@H](CCC(N)=O)C(N)=O)(C3)NC(=O)[C@H](CC(C)C)NC(=O)[C@H](Cc3ccccc3)NC(=O)[C@H](C)NC(=O)[C@H](C)NC(=O)[C@H](CC(=O)O)NC(=O)[C@H](CC(=O)O)NC1=O)NC(=O)[C@H](CC(C)(C)C)NC(=O)[C@H](CC(=O)O)NC2=O (stereo partly drawn) [I-1500, Ac-PL3-Asp-Npg-B5-Asp-Asp-Ala-Ala-Phe-Leu-PyrS2-3Thi-BztA-dGln-NH2] | 5.33 | 7.66 |

Second part, the compound after the results:

| pIC50 [1] | pIC50 [2] | Structure (SMILES) |
| --- | --- | --- |
| < 4.70 | 7.34 | CC(=O)N1CCC[C@]12CC=CCCCC1(CCCC=CCCCOC(=O)N3CC[C@@](C(=O)N[C@@H](Cc4ccsc4)C(=O)N[C@@H](Cc4csc5ccccc45)C(=O)N[C@@H](CCC(N)=O)C(N)=O)(C3)NC(=O)[C@H](CC(C)C)NC(=O)[C@H](Cc3ccccc3)NC(=O)[C@H](CCCN3CCOCC3)NC(=O)[C@H](C)NC(=O)[C@H](CC(=O)O)NC(=O)[C@H](CC(=O)O)NC1=O)NC(=O)[C@H](CC(C)(C)C)NC(=O)[C@H](CC(=O)O)NC2=O (stereo partly drawn) [I-1501, Ac-PL3-Asp-Npg-B5-Asp-Asp-Ala-MorphNva-Phe-Leu-PyrS2-3Thi-BztA-Gln-NH2] |
| < 4.70 | 7.47 | CC(=O)N1CCC[C@]12CC=CCCCC1(CCCC=CCCCOC(=O)N3CC[C@@](C(=O)N[C@@H](Cc4ccsc4)C(=O)N[C@@H](Cc4csc5ccccc45)C(=O)N[C@@H](CCC(N)=O)C(N)=O)(C3)NC(=O)[C@H](CC(C)C)NC(=O)[C@H](Cc3ccccc3)NC(=O)[C@H](CCCN3CCC(F)(F)CC3)NC(=O)[C@H](C)NC(=O)[C@H](CC(=O)O)NC(=O)[C@H](CC(=O)O)NC1=O)NC(=O)[C@H](CC(C)(C)C)NC(=O)[C@H](CC(=O)O)NC2=O (stereo partly drawn) [I-1502, Ac-PL3-Asp-Npg-B5-Asp-Asp-Ala-F2PipNva-Phe-Leu-PyrS2-3Thi-BztA-Gln-NH2] |
| < 4.70 | 7.34 | CC(=O)N1CCC[C@]12CC=CCCCC1(CCCC=CCCCOC(=O)N3CC[C@@](C(=O)N[C@@H](Cc4ccsc4)C(=O)N[C@@H](Cc4csc5ccccc45)C(=O)N[C@@H](CCC(N)=O)C(N)=O)(C3)NC(=O)[C@H](CC(C)C)NC(=O)[C@H](Cc3ccccc3)NC(=O)[C@H](CCN3CCOCC3)NC(=O)[C@H](C)NC(=O)[C@H](CC(=O)O)NC(=O)[C@H](CC(=O)O)NC1=O)NC(=O)[C@H](CC(C)(C)C)NC(=O)[C@H](CC(=O)O)NC2=O (stereo partly drawn) [I-1504, Ac-PL3-Asp-Npg-B5-Asp-Asp-Ala-MorphAbu-Phe-Leu-PyrS2-3Thi-BztA-Gln-NH2] |
| < 4.70 | 7.41 | CC(=O)N1CCC[C@]12CC=CCCCC1(CCCC=CCCCOC(=O)N3CC[C@@](C(=O)N[C@@H](Cc4ccsc4)C(=O)N[C@@H](Cc4csc5ccccc45)C(=O)N[C@@H](CCC(N)=O)C(N)=O)(C3)NC(=O)[C@H](CC(C)C)NC(=O)[C@H](Cc3ccccc3)NC(=O)[C@H](CCN3CCC(F)(F)CC3)NC(=O)[C@H](C)NC(=O)[C@H](CC(=O)O)NC(=O)[C@H](CC(=O)O)NC1=O)NC(=O)[C@H](CC(C)(C)C)NC(=O)[C@H](CC(=O)O)NC2=O (stereo partly drawn) [I-1505, Ac-PL3-Asp-Npg-B5-Asp-Asp-Ala-F2PipAbu-Phe-Leu-PyrS2-3Thi-BztA-Gln-NH2] |
| < 4.70 | 7.52 | CC(=O)N1CCC[C@]12CC=CCCCC1(CCCC=CCCCOC(=O)N3CC[C@@](C(=O)N[C@@H](Cc4ccsc4)C(=O)N[C@@H](Cc4csc5ccccc45)C(=O)N[C@@H](CCC(N)=O)C(N)=O)(C3)NC(=O)[C@H](CC(C)C)NC(=O)[C@H](Cc3ccccc3)NC(=O)[C@H](CC(=O)N3CCOCC3)NC(=O)[C@H](C)NC(=O)[C@H](CC(=O)O)NC(=O)[C@H](CC(=O)O)NC1=O)NC(=O)[C@H](CC(C)(C)C)NC(=O)[C@H](CC(=O)O)NC2=O (stereo partly drawn) [I-1507, Ac-PL3-Asp-Npg-B5-Asp-Asp-Ala-MorphAsn-Phe-Leu-PyrS2-3Thi-BztA-Gln-NH2] |
| 4.50 | 8.00 | CC(=O)N1CCC[C@]12CC=CCCCC1(CCCC=CCCCOC(=O)N3CC[C@@](C(=O)N[C@@H](Cc4ccsc4)C(=O)N[C@@H](Cc4csc5ccccc45)C(=O)N[C@@H](CCO)C(N)=O)(C3)NC(=O)[C@H](CC(C)C)NC(=O)[C@H](Cc3ccccc3)NC(=O)[C@H](C)NC(=O)[C@H](C)NC(=O)[C@H](CC(=O)O)NC(=O)[C@H](CC(=O)O)NC1=O)NC(=O)[C@H](Cc1ccccc1)NC(=O)[C@H](CC(=O)O)NC2=O (stereo partly drawn) [I-1510, Ac-PL3-Asp-Phe-B5-Asp-Asp-Ala-Ala-Phe-Leu-PyrS2-3Thi-BztA-Hse-NH2] |
| < 4.70 | 8.30 | CC(=O)N1CCC[C@]12CC=CCCCC1(CCCC=CCCCOC(=O)N3CC[C@@](C(=O)N[C@@H](Cc4ccsc4)C(=O)N[C@@H](Cc4csc5ccccc45)C(=O)N[C@@H](CCC(N)=O)C(N)=O)(C3)NC(=O)[C@H](CC(C)C)NC(=O)[C@H](Cc3ccccc3)NC(=O)[C@H](C)NC(=O)[C@H](C)NC(=O)[C@H](CC(=O)O)NC(=O)[C@H](CC(=O)O)NC1=O)NC(=O)[C@H](Cc1ccc(O)cc1)NC(=O)[C@H](CC(=O)O)NC2=O (stereo partly drawn) [I-1511, Ac-PL3-Asp-Tyr-B5-Asp-Asp-Ala-Ala-Phe-Leu-PyrS2-3Thi-BztA-Gln-NH2] |

From patent publication US20240116985A1, “STAPLED PEPTIDES AND METHODS THEREOF” (priority 2020, published 2024)
